{
  "source": "ChEMBL document CHEMBL1152723",
  "about": "“Remarkable enhancement in the DNA-binding ability of C2-fluoro substituted pyrrolo[2,1-c][1,4]benzodiazepines and their anticancer potential” (2009)",
  "key": {"PC-3": {"system": "PC-3", "test": "Growth inhibition of human PC3 cells after 48 hrs by sulforhodamine B protein assay", "type": "functional", "settings": "PC-3, 48 h"}, "COLO 205": {"system": "COLO 205", "test": "Growth inhibition of human COLO205 cells after 48 hrs by sulforhodamine B protein assay", "type": "functional", "settings": "COLO 205, 48 h"}, "[1]": {"test": "Growth inhibition of human […] cells after 48 hrs by sulforhodamine B protein assay", "type": "functional"}, "NCI/ADR-RES": {"system": "NCI/ADR-RES", "test": "Growth inhibition of human NCI/ADR-RES cells after 48 hrs by sulforhodamine B protein assay", "type": "functional"}, "SF-539": {"system": "SF-539", "test": "Growth inhibition of human SF539 cells after 48 hrs by sulforhodamine B protein assay", "type": "functional", "settings": "SF-539, 48 h"}, "HOP-92": {"system": "HOP-92", "test": "Growth inhibition of human HOP92 cells after 48 hrs by sulforhodamine B protein assay", "type": "functional", "settings": "HOP-92, 48 h"}, "UACC-257": {"system": "UACC-257", "test": "Growth inhibition of human UACC257 cells after 48 hrs by sulforhodamine B protein assay", "type": "functional", "settings": "UACC-257, 48 h"}, "786-0": {"system": "786-0", "test": "Growth inhibition of human 786-0 cells after 48 hrs by sulforhodamine B protein assay", "type": "functional", "settings": "786-0, 48 h"}, "SN12C": {"system": "SN12C", "test": "Growth inhibition of human SN12C cells after 48 hrs by sulforhodamine B protein assay", "type": "functional"}, "SF-268": {"system": "SF-268", "test": "Growth inhibition of human SF268 cells after 48 hrs by sulforhodamine B protein assay", "type": "functional", "settings": "SF-268, 48 h"}, "[2]": {"target": "T1, Type II restriction enzyme BamHI (Bacillus amyloliquefaciens) (UniProt P23940)", "T1 sequence (whole entry)": "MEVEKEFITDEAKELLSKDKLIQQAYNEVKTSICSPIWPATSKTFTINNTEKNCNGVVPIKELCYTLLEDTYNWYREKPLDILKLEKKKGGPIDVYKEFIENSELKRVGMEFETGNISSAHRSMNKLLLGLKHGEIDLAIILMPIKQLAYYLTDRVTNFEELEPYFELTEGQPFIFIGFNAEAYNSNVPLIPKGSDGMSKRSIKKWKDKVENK", "test": "Inhibition of Bacillus amyloliquefaciens BamH1-mediated pBR322 cleavage after 16 hrs by RED100-restriction endonuclease digestion assay"}, "EKVX": {"system": "EKVX", "test": "Growth inhibition of human EKVX cells after 48 hrs by sulforhodamine B protein assay", "type": "functional"}, "IGROV-1": {"system": "IGROV-1", "test": "Growth inhibition of human IGROV1 cells after 48 hrs by sulforhodamine B protein assay", "type": "functional", "settings": "IGROV-1, 48 h"}},
  "data": [
    {"compound": "COc1cc2c(cc1OCCCN1CCN(CCCOc3cc4c(cc3OC)C(=O)N3CC(F)C[C@H]3C=N4)CC1)N=C[C@@H]1CC(F)CN1C2=O", "note": "(stereo partly drawn)", "values": [
      {"measurement": "GI50", "setting": "PC-3", "result": 10, "unit": "nM"},
      {"measurement": "GI50", "setting": "COLO 205", "result": "< 40", "unit": "nM"},
      {"measurement": "GI50", "setting": "[1]", "result": "< 20", "unit": "nM"},
      {"measurement": "GI50", "setting": "NCI/ADR-RES", "result": 5250, "unit": "nM"},
      {"measurement": "GI50", "setting": "SF-539", "result": "< 10", "unit": "nM"},
      {"measurement": "GI50", "setting": "HOP-92", "result": "< 90", "unit": "nM"},
      {"measurement": "GI50", "setting": "UACC-257", "result": 1270, "unit": "nM"},
      {"measurement": "GI50", "setting": "786-0", "result": "< 30", "unit": "nM"},
      {"measurement": "GI50", "setting": "SN12C", "result": "< 10", "unit": "nM"},
      {"measurement": "GI50", "setting": "SF-268", "result": "< 10", "unit": "nM"},
      {"measurement": "Activity", "setting": "[2]", "result": "Dose-dependent effect"},
      {"measurement": "GI50", "setting": "EKVX", "result": 170, "unit": "nM"},
      {"measurement": "GI50", "setting": "IGROV-1", "result": "< 50", "unit": "nM"}
    ]}
  ]
}
